Experiments:
CDK16 = target: T1, CDK16 (Homo sapiens, UniProt Q00536); experiment: DSF; type: binding; conditions: 10 μM compound
T1 construct: purchased in-house DSF panel (SGC Frankfurt)
Description: (§1) To investigate the selectivity profile of the different series, a differential scanning fluorimetry (DSF) assay was used. This assay offers a rapid and sensitive screening method that determines the denaturation temperature of a protein in absence and presence of a compound. This assay format measures the fluorescence of a dye, which depends on the folding state of the protein. The difference between the melting temperature (ΔTm) in the absence and presence of the compound represents the binding strength to the protein.
(§2) Measurements were performed in duplicates.

CDK2 [1] = target: T2, CDK2 (Homo sapiens, UniProt P24941); experiment: DSF; type: binding; conditions: 10 μM compound
T2 construct: purchased in-house DSF panel (SGC Frankfurt)
Description: as §1, §2

CDK16/Cyclin Y = target: T3, CDK16/Cyclin Y (Homo sapiens, UniProt Q00536); experiment: NanoBRET; type: cell-based; conditions: Figure 7, 11-point dose-response in duplicates; read-out: NanoBRET EC50 ± SEM against CDK16
T3 construct: Full-length kinases were obtained as plasmids cloned in frame with a terminal NanoLuc-fusion; CS1810C178 (CCNY); host or cells: HEK293T
Protocol: Next, to specifically quantify the outcome of the cellular activity of the compounds, a NanoBRET cellular target engagement assay was performed. The determination of the cellular potency on CDK16 correlated well with the corresponding DSF assay data (Figure S2). […] As mentioned before, the exchange from a methyl ester to an iso-propyl or tert-butyl ester led to a higher stabilization of the kinase in the DSF assay, which correlated with an increase in cellular potency as determined in the NanoBRET assay. […] The number of potential off-targets was low with 1 and 2 kinases with ΔTm >5 °C (Figure 4), highlighting these inhibitors for more comprehensive selectivity studied within the CDK and particular the TAIRE subfamily.
(§3) The assay was performed as described previously. In brief: Full-length kinases were obtained as plasmids cloned in frame with a terminal NanoLuc-fusion (Promega, Madison, WI, USA), as specified in table (Table S6). Plasmids were transfected into HEK293T cells using FuGENE HD (Promega, E2312) and proteins were allowed to express for 20h. Serially diluted inhibitor and NanoBRET Kinase Tracer (Promega) at a concentration determined previously as the KD,app (Table S5) were pipetted into white 384-well plates (Greiner 781207) using an Echo acoustic dispenser (Labcyte, San Jose, CA, USA). The corresponding protein-transfected cells were added and reseeded at a density of 2.5 × 10^5 cells/mL after trypsinization and resuspending in Opti-MEM without phenol red (Life Technologies, Carlsbad, CA, USA). The system was allowed to equilibrate for 2 h at 37 °C/5% CO2 prior to BRET measurements. To measure BRET, NanoBRET NanoGlo Substrate + Extracellular NanoLuc Inhibitor (Promega, N2540) was added as per the manufacturer’s protocol, and filtered luminescence was measured on a PHERAstar plate reader (BMG Labtech, Ortenberg, Germany) equipped with a luminescence filter pair (450 nm BP filter (donor) and 610 nm LP filter (acceptor)). Competitive displacement data were then graphed using GraphPad Prism 9 software using a normalized 3-parameter curve fit with the following equation: Y = 100/(1 + 10^(X–LogEC50)).

GSK3B [2] = target: T4, GSK3B (Homo sapiens, UniProt P49841); experiment: DSF; type: binding; parameters: purchased in-house DSF panel (SGC Frankfurt); conditions: 10 μM compound
Description: as §1, §2
Target sequence in this assay (P49841 35-386): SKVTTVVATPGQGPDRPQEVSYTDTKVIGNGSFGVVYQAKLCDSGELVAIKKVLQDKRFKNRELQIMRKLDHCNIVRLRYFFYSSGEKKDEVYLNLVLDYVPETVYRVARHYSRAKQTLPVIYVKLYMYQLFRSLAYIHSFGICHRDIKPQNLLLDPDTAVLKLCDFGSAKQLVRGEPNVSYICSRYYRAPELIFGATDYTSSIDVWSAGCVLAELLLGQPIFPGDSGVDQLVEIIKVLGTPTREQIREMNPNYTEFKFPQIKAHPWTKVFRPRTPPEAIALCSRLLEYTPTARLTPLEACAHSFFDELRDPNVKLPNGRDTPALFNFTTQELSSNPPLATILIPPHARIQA

GSK3B [3] = target: T4, GSK3B; experiment: NanoBRET; type: cell-based; parameters: Full-length kinases were obtained as plasmids cloned in frame with a terminal NanoLuc-fusion; host or cells: HEK293T
Protocol: as §3, with “Competitive displacement data were then graphed using GraphPad Prism 9 software using a normalized 3-parameter curve fit with the following equation: Y = 100/(1 + 10^(X–LogEC50)).” left out
Target sequence in this assay (P49841 whole entry): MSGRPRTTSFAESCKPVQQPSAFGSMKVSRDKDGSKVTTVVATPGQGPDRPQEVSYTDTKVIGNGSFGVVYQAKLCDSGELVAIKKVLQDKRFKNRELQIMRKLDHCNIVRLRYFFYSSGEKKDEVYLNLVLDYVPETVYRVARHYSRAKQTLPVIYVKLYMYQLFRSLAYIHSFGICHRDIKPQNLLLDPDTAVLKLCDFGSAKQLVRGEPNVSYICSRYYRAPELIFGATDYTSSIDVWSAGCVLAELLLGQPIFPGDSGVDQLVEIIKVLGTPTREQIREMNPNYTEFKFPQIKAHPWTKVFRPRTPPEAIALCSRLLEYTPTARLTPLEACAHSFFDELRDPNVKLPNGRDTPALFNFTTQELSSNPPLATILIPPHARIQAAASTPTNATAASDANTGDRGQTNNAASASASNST

359 wild-type kinases = system: 359 wild-type kinases; parameters: method as in PMID 19053485; conditions: kinome-wide screen; cited from earlier work
[4] = system: in-house panel of 89–105 kinases; experiment: DSF selectivity screen; type: binding; conditions: number of kinases of the DSF panel
Description: To investigate the selectivity profile of the different series, a differential scanning fluorimetry (DSF) assay was used. This assay offers a rapid and sensitive screening method that determines the denaturation temperature of a protein in absence and presence of a compound. This assay format measures the fluorescence of a dye, which depends on the folding state of the protein. The difference between the melting temperature (ΔTm) in the absence and presence of the compound represents the binding strength to the protein. We used an in-house panel of 89–105 kinases to screen all synthesized inhibitors (Tables S1–S3).
as §2

CDK2 [5] = target: T2, CDK2; conditions: cited from earlier work
CDK5 = conditions: cited from earlier work
CDK16 and GSK3 = experiment: proteome-wide CETSA MS; type: cell-based; conditions: K562 cells, 30 µM, 60 min
Protocol: To verify whether the substances also lead to stabilization of proteins in the cellular system, proteome-wide CETSA experiments were performed. Therefore, lead structure 1 and some compounds from the second series (21b, 21d, 21e, 21h, and 21i) were selected for this study (Figure 6, Figure S1). While the statistical significance is plotted on the Y-axis, the relative protein amount is shown on the X-axis. […] Based on excellent proteome-wide selectivity identifying CDK16 and GSK3 as the most prominently stabilized kinases, 21d and 21i were selected for further investigations. […] We therefore decided to proceed with a CDK16-specific cellular assay.
Compressed CETSA MS assays, also known as PISA (Proteome Integral Stability Alteration assay), were performed as previously described by Chernobrovkin et. al., with some minor changes. K562 cells were obtained from ATCC. K562 cells were mixed with an equal volume of compound solution, final concentartion of 30 µM, in a buffer (20 mM HEPES, 138 mM NaCl, 5 mM KCl, 2 mM CaCl2, 1 mM MgCl2, pH 7.4). One percent and DMSO was used as a control. Cells were incubated at +37 °C for 60 min. The cell suspension was split into 12 aliquots which were heated at a different temperature between 44 and 66 °C for 3 min. After the heating, the cells were lysed through freeze–thawing them 3 times and the lysed aliquots were pooled together. Cell debris and aggregates were removed through centrifugation (20 min at 30.000× g).

T1 sequence (Q00536 163-478): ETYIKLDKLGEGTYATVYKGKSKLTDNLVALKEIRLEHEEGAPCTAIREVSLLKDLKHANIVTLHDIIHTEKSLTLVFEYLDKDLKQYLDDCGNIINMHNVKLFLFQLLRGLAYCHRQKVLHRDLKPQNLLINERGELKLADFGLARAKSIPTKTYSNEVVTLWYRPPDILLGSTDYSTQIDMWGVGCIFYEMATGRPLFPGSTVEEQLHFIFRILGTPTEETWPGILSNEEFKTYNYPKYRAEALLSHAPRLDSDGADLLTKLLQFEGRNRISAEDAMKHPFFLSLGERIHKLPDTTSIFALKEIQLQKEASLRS
T3 sequence (Q00536 whole entry, the tested form may be a part): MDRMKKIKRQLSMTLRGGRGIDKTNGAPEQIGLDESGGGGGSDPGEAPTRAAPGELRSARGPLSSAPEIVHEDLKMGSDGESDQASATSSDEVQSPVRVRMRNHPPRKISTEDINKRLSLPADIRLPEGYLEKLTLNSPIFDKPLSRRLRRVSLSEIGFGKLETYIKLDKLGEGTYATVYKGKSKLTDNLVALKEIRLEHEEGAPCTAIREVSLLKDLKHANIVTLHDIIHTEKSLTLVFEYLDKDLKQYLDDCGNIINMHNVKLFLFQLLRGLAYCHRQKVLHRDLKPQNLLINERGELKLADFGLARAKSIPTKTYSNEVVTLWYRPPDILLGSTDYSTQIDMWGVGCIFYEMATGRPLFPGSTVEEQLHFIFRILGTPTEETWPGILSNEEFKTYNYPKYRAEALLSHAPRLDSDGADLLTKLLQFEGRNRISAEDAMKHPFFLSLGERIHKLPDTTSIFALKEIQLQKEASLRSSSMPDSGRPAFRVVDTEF
T3 sequence (Q8ND76 2-341 partner limits assumed): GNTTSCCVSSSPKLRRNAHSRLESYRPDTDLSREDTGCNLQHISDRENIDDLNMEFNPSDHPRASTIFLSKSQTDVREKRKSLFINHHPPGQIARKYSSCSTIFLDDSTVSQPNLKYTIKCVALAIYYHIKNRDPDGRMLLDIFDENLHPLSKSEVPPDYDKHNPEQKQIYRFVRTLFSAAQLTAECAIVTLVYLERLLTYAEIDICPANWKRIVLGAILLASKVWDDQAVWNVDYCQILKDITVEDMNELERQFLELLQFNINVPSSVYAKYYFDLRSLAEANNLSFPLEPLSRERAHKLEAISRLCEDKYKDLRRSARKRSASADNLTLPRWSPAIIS

Compound | ΔTm at 10 µM (CDK16) [°C] | ΔTm at 10 µM (CDK2 [1]) [°C] | EC50 (CDK16/Cyclin Y) [nM] | ΔTm at 10 µM (GSK3B [2]) [°C] | EC50 (GSK3B [3]) [nM] | number of kinases targeted of 359 wild-type kinases (359 wild-type kinases) | Kinases with shifts > 5°C [4] | affinity for CDK2 (CDK2 [5]) | affinity for CDK5 (CDK5) | stabilization in CETSA MS (CDK16 and GSK3)
COC(=O)c1cc(Nc2ccnc(Nc3ccc(CCN)cc3)n2)n[nH]1 [compound 24, methyl 3-((2-((4-(2-aminoethyl)phenyl)amino)pyrimidin-4-yl)amino)-1H-pyrazole-5-carboxylate] | 2.4 ± 0.1 | 3 | 2830 ± 544 | 9.5 | 18000 | – | – | – | – | –
N#CCc1ccc(Nc2nc(Nc3cc(C4CC4)[nH]n3)c3ccccc3n2)cc1 [compound 3] | – | – | – | – | – | 317 | – | – | – | –
CC(C)(C)OC(=O)NCCCCCNc1nccc(Nc2cc(C(=O)OC(C)(C)C)[nH]n2)n1 [43b, tert-butyl 3-((2-((5-((tert-butoxycarbonyl)amino)pentyl)amino)pyrimidin-4-yl)amino)-1H-pyrazole-5-carboxylate] | 9.3 ± 0.1 | 6.5 ± 0.1 | 76 ± 0.9 | 6.6 ± 0.1 | – | – | 7–10 | – | – | –
COC(=O)c1cc(Nc2ccnc(Nc3ccc(CC#N)cc3)n2)[nH]n1 [21f, methyl 5-((2-((4-(cyanomethyl)phenyl)amino)pyrimidin-4-yl)amino)-1H-pyrazole-3-carboxylate] | 5.3 | 7.8 | 112 ± 8.6 | 12.3 ± 0.7 | – | – | 27 | – | – | –
Cc1cc(Nc2cc(N3CCN(C)CC3)nc(Sc3ccc(NC(=O)C4CC4)cc3)n2)[nH]n1 [tozasertib] | – | – | – | – | – | – | – | no affinity | no affinity | –
CC(C)OC(=O)c1cc(Nc2ccnc(NCCCCCNC(=O)OC(C)(C)C)n2)n[nH]1 [42b, isopropyl 3-((2-((5-((tert-butoxycarbonyl)amino)pentyl)amino)pyrimidin-4-yl)amino)-1H-pyrazole-5-carboxylate] | 9.1 ± 0.1 | 6.5 | 54 ± 1.8 | 7.8 ± 0.3 | – | – | 7–10 | – | – | –
COC(=O)c1cc(Nc2ccnc(Nc3ccc(CNC(=O)OC(C)(C)C)cc3)n2)[nH]n1 [21h, methyl 5-((2-((4-(((tert-butoxycarbonyl)amino)methyl)phenyl)amino)pyrimidin-4-yl)amino)-1H-pyrazole-3-carboxylate] | 5.1 ± 0.1 | 2.5 ± 0.2 | 391 | 6 ± 0.3 | – | – | 4–9 | – | – | stabilization of CDK16 and GSK3
COC(=O)c1cc(Nc2ccnc(NCCCCCCNC(=O)OC(C)(C)C)n2)[nH]n1 [21e, methyl 5-((2-((6-((tert-butoxycarbonyl)amino)hexyl)amino)pyrimidin-4-yl)amino)-1H-pyrazole-3-carboxylate] | 8.5 | 6.5 ± 0.1 | 152 | 8.6 ± 0.1 | – | – | – | – | – | stabilization of CDK16 and GSK3
COC(=O)c1cc(Nc2ccnc(Nc3cccc(CCNC(=O)OC(C)(C)C)c3)n2)[nH]n1 [21b, methyl 5-((2-((3-(2-((tert-butoxycarbonyl)amino)ethyl)phenyl)amino)pyrimidin-4-yl)amino)-1H-pyrazole-3-carboxylate] | 4.9 | 4.6 ± 0.1 | 688 ± 22.5 | 8.6 ± 0.2 | – | – | – | – | – | stabilization of CDK16 and GSK3
